Ki, half-life and pKa data for 29 compounds are collected here from ChEMBL document CHEMBL1136188, “1H-Pyrazolo-[3,4-c]cyclophepta[1,2-c]thiophenes: a unique structural class of dopamine D4 selective ligands” (Bioorg Med Chem Lett, 2003).

In one series the target is D(2) dopamine receptor (Homo sapiens, UniProt P14416). Description: Binding affinity towards cloned human Dopamine receptor D2 was determined.
The target of the next series is T1, D(4) dopamine receptor (Homo sapiens, UniProt P21917).
T1 sequence (P21917 whole entry): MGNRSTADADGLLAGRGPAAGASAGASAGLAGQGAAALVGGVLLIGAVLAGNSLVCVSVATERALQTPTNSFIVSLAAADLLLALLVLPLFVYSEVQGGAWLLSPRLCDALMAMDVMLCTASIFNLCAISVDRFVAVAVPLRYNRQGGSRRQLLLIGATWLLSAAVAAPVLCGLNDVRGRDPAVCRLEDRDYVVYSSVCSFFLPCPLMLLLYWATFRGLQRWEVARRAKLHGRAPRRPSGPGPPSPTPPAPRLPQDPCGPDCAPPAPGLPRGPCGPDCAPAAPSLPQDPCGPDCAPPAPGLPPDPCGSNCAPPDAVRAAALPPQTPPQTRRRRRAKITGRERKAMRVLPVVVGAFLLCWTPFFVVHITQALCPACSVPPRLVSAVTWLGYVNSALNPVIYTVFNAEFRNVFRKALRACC
Description: Binding affinity to recombinant human dopamine receptor D4.

Series [1] is described as follows: Half life in human microsomes. The class given is ADME, Microsome.
Series [2] addresses T2, D(4) dopamine receptor (Homo sapiens) (UniProt P21917).
T2 sequence (whole entry): T1 sequence (P21917 whole entry)
Description: Association constant towards cloned human dopamine D4 receptor was determined.

Each structure is given as a SMILES string.

D(2) dopamine receptor, sequence (P14416 whole entry): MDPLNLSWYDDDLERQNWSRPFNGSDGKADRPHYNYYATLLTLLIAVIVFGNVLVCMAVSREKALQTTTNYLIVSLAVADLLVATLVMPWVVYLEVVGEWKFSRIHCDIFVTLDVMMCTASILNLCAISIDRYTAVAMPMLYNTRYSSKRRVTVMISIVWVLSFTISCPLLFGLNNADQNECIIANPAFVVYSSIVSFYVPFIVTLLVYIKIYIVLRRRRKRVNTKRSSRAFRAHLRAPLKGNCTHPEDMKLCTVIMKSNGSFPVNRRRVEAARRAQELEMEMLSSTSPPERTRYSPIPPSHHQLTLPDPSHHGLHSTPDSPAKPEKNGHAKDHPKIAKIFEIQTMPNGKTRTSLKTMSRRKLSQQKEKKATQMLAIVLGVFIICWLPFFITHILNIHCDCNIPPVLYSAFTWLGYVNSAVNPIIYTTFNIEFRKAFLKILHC

What is called Ki is the equilibrium dissociation constant of an inhibitor or competing ligand from its target. Regarding `Cc1sc(C)c2c1CCCc1cnn(C(C)C)c1-2`, the Ki on D(2) dopamine receptor worked out at 0.555 µM; at D(4) dopamine receptor, 0.138 µM. Take `Cc1sc(C)c2c1CCc1cn(C)nc1-2`: at D(4) dopamine receptor, the Ki worked out at 2.87 µM.

On to `Cn1cc2c(n1)-c1ccccc1CCC2`, for which the Ki at D(2) dopamine receptor was over 10 µM; at D(4) dopamine receptor, 0.507 µM.

Consider `Cc1ccc(C)c2c1CCCc1c[nH]nc1-2`, for which the inhibition constant Ki at D(2) dopamine receptor is over 10 µM; on D(4) dopamine receptor, 0.425 µM. As to `CC(C)n1ncc2c1-c1c(Cl)sc(Cl)c1CCC2`, the Ki at D(2) dopamine receptor is over 10 µM; at D(4) dopamine receptor, 1.56 µM.

As to `Cc1sc(C)c2c1CCCc1ncn(C)c1-2`, the inhibition constant (Ki) on D(2) dopamine receptor was over 10 µM; at D(4) dopamine receptor, 1.29 µM. With `Cc1sc(C)c2c1CCCc1nncn1-2`, the Ki on D(2) dopamine receptor is over 10 µM; on D(4) dopamine receptor it was 4.32 µM. The matching figures for `Cc1sc(C)c2c1CCCc1nnc(C)n1-2`: over 10 µM and 0.462 µM. For `Clc1sc(Cl)c2c1CCCc1c[nH]nc1-2`, the Ki was found to be 0.534 µM on D(2) dopamine receptor and 0.169 µM on D(4) dopamine receptor. With `CCn1ncc2c1-c1c(Cl)sc(Cl)c1CCC2`, the figures for the Ki on D(2) dopamine receptor and on D(4) dopamine receptor were 0.489 µM and 0.168 µM, respectively.

In the case of `c1ccc2c(c1)CCCc1c[nH]nc1-2`, the inhibition constant Ki at D(2) dopamine receptor and at D(4) dopamine receptor was over 10 µM in each case. On to `CCCn1ncc2c1-c1c(Cl)sc(Cl)c1CCC2`, for which the results for the inhibition constant (Ki) on D(2) dopamine receptor and on D(4) dopamine receptor were over 10 µM and 3.55 µM, respectively. Consider `Clc1sc(Cl)c2c1CCCc1cnn(Cc3ccccc3)c1-2`, for which the Ki at D(2) dopamine receptor and at D(4) dopamine receptor was over 10 µM in each case. On to `Cc1sc(C)c2c1CC(C)(C)Cc1c[nH]nc1-2`, for which the inhibition constant Ki is over 10 µM on D(2) dopamine receptor and 1.3 µM at D(4) dopamine receptor. As to `Cc1sc(C)c2c1CCc1cnn(C)c1-2`, the values for the Ki on D(2) dopamine receptor and at D(4) dopamine receptor were 0.462 µM and 0.026 µM, respectively. Consider `Cn1ncc2c1-c1ccccc1CCC2`, for which the inhibition constant (Ki) on D(2) dopamine receptor and on D(4) dopamine receptor was over 10 µM in each case.

One may read the half-life as the time needed for the level to fall by half in the phase considered. Regarding `Cc1sc(C)c2c1SCc1cnn(C)c1-2`, the half-life in series [1] was under 1 min. For the same compound, the Ki on D(2) dopamine receptor amounted to 0.111 µM; at D(4) dopamine receptor, 0.003 µM. In series [2], this compound showed a pKa of 3.06. Turning to `Cc1sc(C)c2c1CCc1c[nH]nc1-2`, the Ki at D(4) dopamine receptor came out at 0.17 µM. In the case of `Cc1sc(C)c2c1CCCc1nccn1-2`, the inhibition constant (Ki) on D(2) dopamine receptor is over 10 µM; at D(4) dopamine receptor, 0.301 µM. As to `Cc1sc(C)c2c1CCCc1c-2n[nH]c1CN(C)C`, at D(4) dopamine receptor, the Ki was 2.56 µM. For the compound `Cc1sc(C)c2c1CN(C)Cc1c[nH]nc1-2`, the Ki on D(4) dopamine receptor was over 10 µM. With `Cc1sc(C)c2c1CCCc1cn(C)nc1-2`, the inhibitory constant (Ki) on D(2) dopamine receptor is 0.641 µM; on D(4) dopamine receptor, 0.228 µM. For `CCn1ncc2c1-c1c(C)sc(C)c1CCC2` the same measures were 0.402 µM and 0.022 µM. The matching figures for `Cc1sc(C)c2c1CCCc1cnn(C)c1-2`: 0.176 µM and 0.002 µM. `Cc1oc(C)c2c1CCCc1cnn(C)c1-2`: the inhibition constant (Ki) was determined as 0.028 µM at D(2) dopamine receptor and 0.011 µM at D(4) dopamine receptor. For the compound `Cc1oc(C)c2c1CCCc1c[nH]nc1-2`, the Ki at D(4) dopamine receptor was found to be 0.275 µM.

For the compound `Cc1sc(C)c2c1CCCc1cnn(-c3ccccc3)c1-2`, the inhibition constant (Ki) on D(2) dopamine receptor was over 10 µM; on D(4) dopamine receptor, 1.58 µM. On to `CCCn1ncc2c1-c1c(C)sc(C)c1CCC2`, for which the inhibition constant (Ki) at D(2) dopamine receptor was determined as 0.885 µM; on D(4) dopamine receptor it was 0.097 µM. Turning to `Cn1ncc2c1-c1c(Cl)sc(Cl)c1CCC2`, the results for the Ki at D(2) dopamine receptor and on D(4) dopamine receptor were 0.416 µM and 0.014 µM, respectively.
